Consider 1 compound from ChEMBL document CHEMBL4402592, “Targeting Endoplasmic Reticulum α-Glucosidase I with a Single-Dose Iminosugar Treatment Protects against Lethal Influenza and Dengue Virus Infections” (J Med Chem, 2020).

Activity calls are given as the source filed them. No cut-off for these calls is given here.

For test [1], the system named is Mus musculus. The test is described as follows: In vivo inhibition of ERGlu2 in BALB/c mouse assessed as increase in di-glucosylated FOS level in serum at 100 mg/kg, po administered via gavage starting at 8 hrs post-infection and continuing tid for 5 days and measured at 8 hrs post-final dose by NP-HPLC analysis. It is filed as functional, organism-based.
Test [2] deals with Influenza A virus. The test is described as follows: Antiviral activity against Influenza A virus (A/Texas/36/1991(H1N1)) infected in BALB/c mouse assessed as animal survival at 100 mg/kg, po administered via gavage starting at 8 hrs post-infection and continuing TID for 5 days (reference value: 0%). It is filed as functional.
The subject of test [3] is Mus musculus. The test is described as follows: In vivo inhibition of ERGlu2 in BALB/c mouse assessed as increase in mono-glucosylated FOS level in serum at 100 mg/kg, po administered via gavage starting at 8 hrs post-infection and continuing tid for 5 days and measured at 8 hrs post-final dose by NP-HPLC analysis. It is filed as functional, organism-based.
In test [4] the test system is Influenza A virus. The test is described as follows: Antiviral activity against Influenza A virus (A/Texas/36/1991(H1N1)) infected in BALB/c mouse assessed as animal survival at 500 mg/kg, po administered via gavage as two doses at 8 and 32 hrs post infection (reference value: 0%). It is filed as functional.
Test [5] relates to Influenza A virus. The test is described as follows: Antiviral activity against Influenza A virus (A/Texas/36/1991(H1N1)) infected in BALB/c mouse assessed as animal survival at 500 mg/kg, po administered via gavage as three doses at 8, 32 and 56 hrs post infection (reference value: 0%). It is filed as functional.
Test [6] deals with Influenza A virus. The test is described as follows: Antiviral activity against Influenza A virus (A/Texas/36/1991(H1N1)) infected in BALB/c mouse assessed as median death time at 750 mg/kg, po administered via gavage as single dose at 8 hrs post infection. It is filed as functional.
In test [7] the test system is Influenza A virus. The test is described as follows: Antiviral activity against Influenza A virus (A/Texas/36/1991(H1N1)) infected in BALB/c mouse assessed as median death time at 500 mg/kg, po administered via gavage as single dose at 8 hrs post infection. It is filed as functional.
The test system of test [8] is Influenza A virus. The test is described as follows: Antiviral activity against Influenza A virus (A/Texas/36/1991(H1N1)) infected in BALB/c mouse assessed as median death time at 750 mg/kg, po administered via gavage as two doses at 8 hrs and 32 hrs post infection (reference value: 9 days). It is filed as functional.
Test [9] deals with dengue virus type 2. The test is described as follows: Antiviral activity against Dengue virus 2 S221 infected in DENV antibody dependent enhancement AG129 mouse model assessed as animal survival at 750 mg/kg, po administered via gavage as two doses at 8 and 24 hrs post infection (reference value: 4%). It is filed as functional.
Test [10] has as its system dengue virus type 2. The test is described as follows: Antiviral activity against Dengue virus 2 S221 infected in DENV antibody dependent enhancement AG129 mouse model assessed as animal survival at 750 mg/kg, po administered via gavage as two doses at 24 and 40 hrs post infection (reference value: 4%). It is filed as functional.
For test [11], the system named is dengue virus type 2. The test is described as follows: Antiviral activity against Dengue virus 2 S221 infected in DENV antibody dependent enhancement AG129 mouse model assessed as animal survival at 375 mg/kg, po administered via gavage as two doses at 36 and 52 hrs post infection (reference value: 4%). It is filed as functional.
In test [12] the test system is dengue virus type 2. The test is described as follows: Antiviral activity against Dengue virus 2 S221 infected in DENV antibody dependent enhancement AG129 mouse model assessed as reduction in IFN-gamma level at 750 mg/kg, po administered via gavage as single dose at 36 hrs post infection measured at 72 hrs post-infection by electrochemiluminescence based method. It is filed as functional, organism-based.

Test [13] relates to dengue virus type 2. The test is described as follows: Antiviral activity against Dengue virus 2 S221 infected in DENV antibody dependent enhancement AG129 mouse model assessed as reduction in IL-10 level at 750 mg/kg, po administered via gavage as two doses at 36 hrs and 52 hrs post infection measured at 72 hrs post-infection by electrochemiluminescence based method. It is filed as functional, organism-based.

Test [14] has as its system dengue virus type 2. The test is described as follows: Antiviral activity against Dengue virus 2 S221 infected in DENV antibody dependent enhancement AG129 mouse model assessed as reduction in IL-12/IL-23p40 level at 750 mg/kg, po administered via gavage as two doses at 36 hrs and 52 hrs post infection measured at 72 hrs post-infection by electrochemiluminescence based method. It is filed as functional, organism-based.

In test [15] the test system is Mus musculus. The test is described as follows: In vivo inhibition of ERGlu2 in BALB/c mouse assessed as increase in mono-glucosylated FOS level in serum at 20 mg/kg, po administered via gavage starting at 8 hrs post-infection and continuing tid for 5 days and measured at 8 hrs post-final dose by NP-HPLC analysis. It is filed as functional, organism-based.
Test [16] relates to Influenza A virus. The test is described as follows: Antiviral activity against Influenza A virus (A/Texas/36/1991(H1N1)) infected in BALB/c mouse assessed as increase in animal survival rate at >250 mg/kg, po administered via gavage as single dose at 8 hrs post-infection. It is filed as functional, organism-based.
Test [17] concerns dengue virus type 2. The test is described as follows: Antiviral activity against Dengue virus 2 S221 infected in DENV antibody dependent enhancement AG129 mouse model assessed as log10 reduction in viremia by measuring foci of BHK21 cells containing DENV E at 750 mg/kg, po administered via gavage as single dose at 36 hrs post infection measured after titration of compound treated infected animal serum with BHK21 cells by TrueBlue staining based focus forming assay. It is filed as functional.

Test [18] has as its system dengue virus type 2. The test is described as follows: Antiviral activity against Dengue virus 2 S221 infected in DENV antibody dependent enhancement AG129 mouse model assessed as reduction in viremia at 750 mg/kg, po administered via gavage as two doses at 36 hrs and 52 hrs post infection by qRT-PCR analysis. It is filed as functional, organism-based. In general terms: In qPCR the cycle at which signal appears reflects the starting amount.

The subject of test [19] is dengue virus type 2. The test is described as follows: Antiviral activity against Dengue virus 2 S221 infected in DENV antibody dependent enhancement AG129 mouse model assessed as reduction in TNF-lapha level at 750 mg/kg, po administered via gavage as two doses at 36 hrs and 52 hrs post infection measured at 52 hrs post-infection by electrochemiluminescence based method. It is filed as functional, organism-based.

Test [20] concerns dengue virus type 2. The test is described as follows: Antiviral activity against Dengue virus 2 S221 infected in DENV antibody dependent enhancement AG129 mouse model assessed as reduction in TNF-alpha level at 750 mg/kg, po administered via gavage as single dose at 36 hrs post infection measured at 72 hrs post-infection by electrochemiluminescence based method. It is filed as functional, organism-based.

Test [21] deals with Mus musculus. The test is described as follows: In vivo inhibition of ERGlu2 in BALB/c mouse assessed as increase in mono-glucosylated FOS level in spleen at 100 mg/kg, po administered via gavage starting at 8 hrs post-infection and continuing tid for 5 days and measured at 8 hrs post-final dose by NP-HPLC analysis. It is filed as functional, organism-based.
The test system of test [22] is Mus musculus. The test is described as follows: In vivo inhibition of ERGlu2 in BALB/c mouse assessed as increase in mono-glucosylated FOS level in lung at 100 mg/kg, po administered via gavage starting at 8 hrs post-infection and continuing tid for 5 days and measured at 8 hrs post-final dose by NP-HPLC analysis. It is filed as functional, organism-based.
In test [23] the test system is Mus musculus. The test is described as follows: In vivo inhibition of ERGlu2 in BALB/c mouse assessed as increase in mono-glucosylated FOS level in spleen at 20 mg/kg, po administered via gavage starting at 8 hrs post-infection and continuing tid for 5 days and measured at 8 hrs post-final dose by NP-HPLC analysis. It is filed as functional, organism-based.
The test system of test [24] is Mus musculus. The test is described as follows: In vivo inhibition of ERGlu2 in BALB/c mouse assessed as increase in mono-glucosylated FOS level in lung at 20 mg/kg, po administered via gavage starting at 8 hrs post-infection and continuing tid for 5 days and measured at 8 hrs post-final dose by NP-HPLC analysis. It is filed as functional, organism-based.

As to `COCCCCCCCCCN1C[C@H](O)[C@@H](O)[C@H](O)[C@H]1CO.Cl`, the inhibition result with Mus musculus [1], in the test with Mus musculus [3], in the test with Mus musculus [15], in the test on Mus musculus [21], with Mus musculus [22] and with Mus musculus [23] was “Active” each time. Besides, the inhibition result in the test on Mus musculus [24] was “Active”. Further, the survival at 100 mg/kg in the test with Influenza A virus [2] amounted to 90%. Moreover, the survival at 500 mg/kg in the test on Influenza A virus [4] and with Influenza A virus [5] was 100% each time. Moreover, the Time is greater than 14 days with Influenza A virus [6], 12.5 days in the test with Influenza A virus [7] and greater than 14 days in the test on Influenza A virus [8]. For the same compound, the values for the survival at 750 mg/kg in the test with dengue virus type 2 [9] and in the test on dengue virus type 2 [10] were 94% and 89%, respectively. The survival at 375 mg/kg in the test with dengue virus type 2 [11] is 100%. Further, the result in the test with dengue virus type 2 [12], in the test with dengue virus type 2 [13], in the test with dengue virus type 2 [14], in the test with Influenza A virus [16], with dengue virus type 2 [18] and with dengue virus type 2 [19] was Active. The result with dengue virus type 2 [20] was Active. The “log(activity)” value in the test with dengue virus type 2 [17] was greater than 1.
